Experimental data from US20220281848A1, “PYRAZOLE-SUBSTITUTED PYRROLIDINONES AS HERBICIDES” (FMC Corporation, priority 2019, published 2022).

Tests used:
Format in all cases: in vivo
[1] = system: barnyardgrass (Echinochloa crus-galli, ECHCG); experiment: Test A pre-emergence, barnyardgrass; conditions: after 13 d
In short: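 Each compound is applied pre-emergence at 15.625, 62.5 or 250 g/ha, one day after seeds are sown in standard soil. Plants are then grown in a glasshouse at 24/16° C. with 14 h light and 65% humidity, and injury is scored 0–100 at 13 d.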

[2] = system: corn (Zea mays, ZEAMX); experiment: Test A post-emergence, corn; conditions: after 13 d
In short: (§1)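 Plants sown in standard soil were grown 8 d in a glasshouse (24/16 °C day/night, 14 h light, 65% humidity), then sprayed with compound in acetone/water (50:50) with 0.5% Tween 20 at 15.625, 62.5 or 250 g/ha. Damage was scored after 13 d (0 = none, 100 = total).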

[3] = system: barnyardgrass (Echinochloa crus-galli, ECHCG); experiment: Test A post-emergence, barnyardgrass; conditions: after 13 d
In short: as §1

[4] = system: maize; experiment: Test D pre-emergence, maize seed treated with a herbicide safener; conditions: ZEAMX, preemergent, 20 DAA
Description: (§2) A formulation containing 50 g/L of the test chemical was prepared by dissolving the active ingredient in a mixture of organic solvents and emulsifier, details of which are provided in the table. This formulation was then mixed with a small, variable amount of acetone to aid dissolution, before addition of a 0.2% v/v aqueous solution of an adjuvant, as the aqueous diluent, to form an aqueous spray solution which contains a predetermined concentration of the active ingredient.
(§3) This aqueous spray solution was then sprayed onto plants including maize and wheat that had been seed treated with a herbicide safener, after one day's cultivation (for pre-emergence) or after about 12 days' cultivation (for post-emergence). The plants were grown from seeds sown in standard soil, placed in a glasshouse under controlled conditions (at 24/18° C. or 20/16° C., day/night; 16 h light; 65% humidity). After spray application the plants were then grown in a glasshouse under the same conditions and watered twice daily. After 15 d for post-emergence and 20 DAA for pre-emergence the test was evaluated (100=total damage to plant; 0=no damage to plant).

[5] = system: plants; experiment: Test D post-emergence, other plants of Tables D2 and D4; conditions: "Cereals" Postemergent, evaluated after 15 d
Description: as §2, §3

In the case of `CN1CC(c2cc(C(F)(F)F)n(C)n2)C(C(=O)Nc2ccc(F)cc2F)C1=O` (racemic) [Compound 6], the “damage to plant (100=total damage; 0=no damage) ECHCG” value ([1]; Pre-Emergence at 15.625 g/ha) is reported as 80, the “damage to plant (100=total damage; 0=no damage) ECHCG” value ([1]; Pre-Emergence at 62.5 g/ha) is reported as 90 and the “damage to plant (100=total damage; 0=no damage) ECHCG” value ([1]; Pre-Emergence at 250 g/ha) is reported as 90. For the same compound, the “damage to plant (100=total damage; 0=no damage) ZEAMX” value ([2]; Post-Emergence at 15.625 g/ha) was 10, the “damage to plant (100=total damage; 0=no damage) ZEAMX” value ([2]; Post-Emergence at 62.5 g/ha) was 20 and the “damage to plant (100=total damage; 0=no damage) ZEAMX” value ([2]; Post-Emergence at 250 g/ha) was 60. For the same compound, the “damage to plant (100=total damage; 0=no damage) ECHCG” value ([3]; Post-Emergence at 15.625 g/ha) was 70, the “damage to plant (100=total damage; 0=no damage) ECHCG” value ([3]; Post-Emergence at 62.5 g/ha) was 70 and the “damage to plant (100=total damage; 0=no damage) ECHCG” value ([3]; Post-Emergence at 250 g/ha) was 70. For the same compound, the “damage to plant (100=total damage to plant; 0=no damage to plant), ZEAMX” value ([4]; rate 15) was 0, the “damage to plant (100=total damage to plant; 0=no damage to plant), ZEAMX” value ([4]; rate 30) was 0 and the “damage to plant (100=total damage to plant; 0=no damage to plant), ZEAMX” value ([4]; rate 60) was 0. The “damage to plant (100=total damage to plant; 0=no damage to plant), ZEAMX” value ([4]; rate 130) was 0, the “damage to plant (100=total damage to plant; 0=no damage to plant), ZEAMX” value ([4]; rate 250) was 0 and the “damage to plant (100=total damage to plant; 0=no damage to plant), ZEAMX” value ([4]; rate 500) was 0. The “ALOMY damage rating (100=total damage to plant; 0=no damage to plant)” value ([5]; Rates 130) was 0, the “ALOMY damage rating (100=total damage to plant; 0=no damage to plant)” value ([5]; Rates 250) was 0 and the “ALOMY damage rating (100=total damage to plant; 0=no damage to plant)” value ([5]; Rates 500) was 0. The “AVEFA damage rating (100=total damage to plant; 0=no damage to plant)” value ([5]; Rates 130) was 0, the “AVEFA damage rating (100=total damage to plant; 0=no damage to plant)” value ([5]; Rates 250) was 0 and the “AVEFA damage rating (100=total damage to plant; 0=no damage to plant)” value ([5]; Rates 500) was 10. The “BEAVA damage rating (100=total damage to plant; 0=no damage to plant)” value ([5]; Rates 130) was 0, the “BEAVA damage rating (100=total damage to plant; 0=no damage to plant)” value ([5]; Rates 250) was 0 and the “BEAVA damage rating (100=total damage to plant; 0=no damage to plant)” value ([5]; Rates 500) was 0. For the same compound, the “BROTE damage rating (100=total damage to plant; 0=no damage to plant)” value ([5]; Rates 130) was 0, the “BROTE damage rating (100=total damage to plant; 0=no damage to plant)” value ([5]; Rates 250) was 0 and the “BROTE damage rating (100=total damage to plant; 0=no damage to plant)” value ([5]; Rates 500) was 10. For the same compound, the “BRSNN damage rating (100=total damage to plant; 0=no damage to plant)” value ([5]; Rates 130) was 0, the “BRSNN damage rating (100=total damage to plant; 0=no damage to plant)” value ([5]; Rates 250) was 0 and the “BRSNN damage rating (100=total damage to plant; 0=no damage to plant)” value ([5]; Rates 500) was 10. The “CHEAL damage rating (100=total damage to plant; 0=no damage to plant)” value ([5]; Rates 130) was 0, the “CHEAL damage rating (100=total damage to plant; 0=no damage to plant)” value ([5]; Rates 250) was 0 and the “CHEAL damage rating (100=total damage to plant; 0=no damage to plant)” value ([5]; Rates 500) was 0. For the same compound, the “GALAP damage rating (100=total damage to plant; 0=no damage to plant)” value ([5]; Rates 130) was 0, the “GALAP damage rating (100=total damage to plant; 0=no damage to plant)” value ([5]; Rates 250) was 10 and the “GALAP damage rating (100=total damage to plant; 0=no damage to plant)” value ([5]; Rates 500) was 20. The “HORVW damage rating (100=total damage to plant; 0=no damage to plant)” value ([5]; Rates 130) was 0, the “HORVW damage rating (100=total damage to plant; 0=no damage to plant)” value ([5]; Rates 250) was 10 and the “HORVW damage rating (100=total damage to plant; 0=no damage to plant)” value ([5]; Rates 500) was 30. For the same compound, the “KCHSC damage rating (100=total damage to plant; 0=no damage to plant)” value ([5]; Rates 130) was 0, the “KCHSC damage rating (100=total damage to plant; 0=no damage to plant)” value ([5]; Rates 250) was 0 and the “KCHSC damage rating (100=total damage to plant; 0=no damage to plant)” value ([5]; Rates 500) was 10. The “LOLPE damage rating (100=total damage to plant; 0=no damage to plant)” value ([5]; Rates 130) was 0, the “LOLPE damage rating (100=total damage to plant; 0=no damage to plant)” value ([5]; Rates 250) was 0 and the “LOLPE damage rating (100=total damage to plant; 0=no damage to plant)” value ([5]; Rates 500) was 0. For the same compound, the “POAAN damage rating (100=total damage to plant; 0=no damage to plant)” value ([5]; Rates 130) was 0, the “POAAN damage rating (100=total damage to plant; 0=no damage to plant)” value ([5]; Rates 250) was 0 and the “POAAN damage rating (100=total damage to plant; 0=no damage to plant)” value ([5]; Rates 500) was 10. The “POLCO damage rating (100=total damage to plant; 0=no damage to plant)” value ([5]; Rates 130) was 0, the “POLCO damage rating (100=total damage to plant; 0=no damage to plant)” value ([5]; Rates 250) was 0 and the “POLCO damage rating (100=total damage to plant; 0=no damage to plant)” value ([5]; Rates 500) was 0.
